# From patent US20260285850A1, “SUBSTITUTED OXAZOLIDINONES AND IMIDAZOLINONES AS HERBICIDES” (FMC CORPORATION, priority 2023, published 2026)
# Legend:
# Type in all cases: in vivo
# [1] = tested on: rice (Oryza sativa); test: Test B flooded paddy test, visual plant response rating 0-100; details: 250 g ai/ha, Flood, applied to paddy water, evaluated after 13 days
# In short: (§1)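 Compounds applied to standing paddy water (3 cm above soil, maintained for the test duration) on 2-leaf-stage plants; visual rating vs controls at 13 days, greenhouse.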
# [2] = tested on: ducksalad (Heteranthera limosa); test: as above; details: 250 g ai/ha, Flood, applied to paddy water, evaluated after 13 days
# In short: as §1
# [3] = tested on: sedge, umbrella (small-flower umbrella sedge, Cyperus difformis); test: as above; details: 250 g ai/ha, Flood, applied to paddy water, evaluated after 13 days
# In short: as §1
# [4] = tested on: barnyardgrass (Echinochloa crusgalli); test: as above; details: 250 g ai/ha, Flood, applied to paddy water, evaluated after 13 days
# In short: as §1
# [5] = tested on: barnyardgrass (Echinochloa crus-galli); test: Test A preemergence soil spray, visual injury rating 0-100; details: 10 days
# In short: (§2)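 Greenhouse test: loam/sand pots received a surfactant-containing formulation, as a preemergence directed soil spray or a postemergence spray on young plants. Injury was judged visually at day 10 relative to untreated controls.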
# [6] = tested on: ryegrass, Italian (italian ryegrass, Lolium multiflorum); test: as above; details: 10 days
# In short: as §2
# [7] = tested on: ragweed (common ragweed, Ambrosia artemisiifolia); test: as above; details: 10 days
# In short: as §2
# [8] = tested on: corn (Zea mays); test: as above; details: 10 days
# In short: as §2
# [9] = tested on: blackgrass (Alopecurus myosuroides); test: as above; details: 10 days
# In short: as §2
# [10] = tested on: kochia (Bassia scoparia); test: as above; details: 10 days
# In short: as §2
# [11] = tested on: wheat (Triticum aestivum); test: as above; details: 10 days
# In short: as §2
# [12] = tested on: soybean (Glycine max); test: as above; details: 10 days
# In short: as §2
# [13] = tested on: oat, wild (wild oat, Avena fatua); test: as above; details: 10 days
# In short: as §2
# [14] = tested on: palmer (palmer amaranth, palmer pigweed, Amaranthus palmeri); test: as above; details: 10 days
# In short: as §2
# [15] = tested on: green foxtail (Setaria viridis); test: as above; details: 10 days
# In short: as §2
# [16] = tested on: barnyardgrass (Echinochloa crus-galli); test: Test A postemergence application, visual injury rating 0-100
# In short: as §2
# [17] = tested on: ryegrass, Italian (italian ryegrass, Lolium multiflorum); test: as above
# In short: as §2
# [18] = tested on: horseweed (Erigeron canadensis); test: as above
# In short: as §2
# [19] = tested on: ragweed (common ragweed, Ambrosia artemisiifolia); test: as above
# In short: as §2
# [20] = tested on: corn (Zea mays); test: as above
# In short: as §2
# [21] = tested on: blackgrass (Alopecurus myosuroides); test: as above
# In short: as §2
# [22] = tested on: kochia (Bassia scoparia); test: as above
# In short: as §2
# [23] = tested on: wheat (Triticum aestivum); test: as above
# In short: as §2
# [24] = tested on: soybean (Glycine max); test: as above
# In short: as §2
# [25] = tested on: oat, wild (wild oat, Avena fatua); test: as above
# In short: as §2
# [26] = tested on: palmer (palmer amaranth, palmer pigweed, Amaranthus palmeri); test: as above
# In short: as §2
# [27] = tested on: green foxtail (Setaria viridis); test: as above
# In short: as §2
# [28] = 62 g ai/ha, 0 = no effect, 100 = complete control
# [29] = 62 g ai/ha, postemergence, 10 days, 0 = no effect, 100 = complete control
# [30] = Postemergence, 16 g ai/ha, greenhouse 10 days, 0 no effect, 100 complete control
compound,measurement,setting,value
CCOC(=O)C1=CCC(NC(=O)C2(C)CN(c3cc(F)cc(F)c3)C(=O)O2)C1 (centres unmarked) [Compound 112],"Plant response rating, Rice (0 to 100 scale, 0 is no effect and 100 is complete control)",[1],85
same,"Plant response rating, Ducksalad (0 to 100 scale, 0 is no effect and 100 is complete control)",[2],95
same,"Plant response rating, Sedge, Umbrella (0 to 100 scale, 0 is no effect and 100 is complete control)",[3],95
same,"Plant response rating, Barnyardgrass (0 to 100 scale, 0 is no effect and 100 is complete control)",[4],80
same,Barnyardgrass plant response rating,"[5]; 16 g ai/ha, 0 to 100 scale",20
same,Barnyardgrass plant response rating (0-100),[5]; [28],100
same,"Ryegrass, Italian plant response rating","[6]; 16 g ai/ha, 0 to 100 scale",60
same,"Ryegrass, Italian plant response rating (0-100)",[6]; [28],80
same,Ragweed plant response rating,"[7]; 16 g ai/ha, 0 to 100 scale",0
same,Ragweed plant response rating (0-100),[7]; [28],0
same,Corn plant response rating,"[8]; 16 g ai/ha, 0 to 100 scale",20
same,Corn plant response rating (0-100),[8]; [28],60
same,Blackgrass plant response rating,"[9]; 16 g ai/ha, 0 to 100 scale",0
same,Blackgrass plant response rating (0-100),[9]; [28],30
same,Kochia plant response rating,"[10]; 16 g ai/ha, 0 to 100 scale",0
same,Kochia plant response rating (0-100),[10]; [28],70
same,Wheat plant response rating,"[11]; 16 g ai/ha, 0 to 100 scale",40
same,Wheat plant response rating (0-100),[11]; [28],70
same,Soybean plant response rating,"[12]; 16 g ai/ha, 0 to 100 scale",10
same,Soybean plant response rating (0-100),[12]; [28],0
same,"Oat, Wild plant response rating","[13]; 16 g ai/ha, 0 to 100 scale",0
same,"Oat, Wild plant response rating (0-100)",[13]; [28],0
same,"Pigweed, Palmer plant response rating","[14]; 16 g ai/ha, 0 to 100 scale",0
same,"Pigweed, Palmer plant response rating (0-100)",[14]; [28],100
same,"Foxtail, Green plant response rating","[15]; 16 g ai/ha, 0 to 100 scale",20
same,"Foxtail, Green plant response rating (0-100)",[15]; [28],100
same,Barnyardgrass plant response rating (0-100),[16]; [29],100
same,Barnyardgrass plant response rating (0 to 100 scale),[16]; [30],100
same,"Ryegrass, Italian plant response rating (0-100)",[17]; [29],90
same,"Ryegrass, Italian plant response rating (0 to 100 scale)",[17]; [30],60
same,Horseweed plant response rating (0-100),[18]; [29],0
same,Horseweed plant response rating (0 to 100 scale),[18]; [30],0
same,Ragweed plant response rating (0-100),[19]; [29],50
same,Ragweed plant response rating (0 to 100 scale),[19]; [30],50
same,Corn plant response rating (0-100),[20]; [29],100
same,Corn plant response rating (0 to 100 scale),[20]; [30],100
same,Blackgrass plant response rating (0-100),[21]; [29],80
same,Blackgrass plant response rating (0 to 100 scale),[21]; [30],70
same,Kochia plant response rating (0-100),[22]; [29],90
same,Kochia plant response rating (0 to 100 scale),[22]; [30],60
same,Wheat plant response rating (0-100),[23]; [29],90
same,Wheat plant response rating (0 to 100 scale),[23]; [30],90
same,Soybean plant response rating (0-100),[24]; [29],80
same,Soybean plant response rating (0 to 100 scale),[24]; [30],60
same,"Oat, Wild plant response rating (0-100)",[25]; [29],90
same,"Oat, Wild plant response rating (0 to 100 scale)",[25]; [30],50
same,"Pigweed, Palmer plant response rating (0-100)",[26]; [29],80
same,"Pigweed, Palmer plant response rating (0 to 100 scale)",[26]; [30],30
same,"Foxtail, Green plant response rating (0-100)",[27]; [29],90
same,"Foxtail, Green plant response rating (0 to 100 scale)",[27]; [30],90
